# Laboratory results published in US5670493A, “Aminophenylphosphonic acid compounds” (priority 1995, dated 1997).
# Counter-ions that a name gives are not always drawn.
# How the values were obtained:
# [1] = tested on: chick embryo chorioallantoic membrane; assay: Inhibition of the neovascularization of the chick embryo chorioallantoic membrane (CAM test); assay type: in vivo; details: for inhibition at 125 µM: Gallus gallus, % of eggs with avascular zone > 4 mm, 48 hours; for CAM test: collective results table, with spread, % of eggs displaying an avascular zone
# Experimental: This test is carried out with chick embryos as described previously (Crum R., Szabo S. and Folkman J., Science, (1985), 230, 1375-1378). Fertilized eggs (D0) are incubated at 37° C. An air pocket is created by withdrawing 1 ml of albumin (D3), and a window is then cut in the shell (D4) and the vitelline membrane is removed to expose the chorioallantoic membrane (CAM).
# The test products are solubilized in ethanol and applied to methylcellulose disks, which are dried and applied to CAM on day 6. Between 8 and 16 eggs are used per group. The zone located around the disk is then examined 48 hours later. Eggs displaying an avascular zone greater than 4 mm in diameter are counted, and the results are expressed as a percentage of eggs displaying an avascular zone. […]
# [2] = Cytotoxicity, PAEC (microculture tetrazolium assay); assay type: cell-based; details: pig, aorta endothelial cells paec, 3 days, read-out: Cytotoxicity PAEC IC50
# Experimental: (§1) Three cell lines were used:
# (§2) 1 primary culture of pig aorta endothelial cells, PAEC.
# (§3) The cells are cultured in complete RPMI 1640 medium containing 10% of fetal calf serum, 2 mM glutamine, 50 units/ml of penicillin, 50 μg/ml of streptomycin and 10 mM HEPES (pH=7.4).
# (§4) The cells are distributed in microplates and exposed to the compounds of the invention. The cells are then incubated for two days (L1210), 3 days (PAEC) and 4 days (A431). The number of viable cells is then quantified by a colorimetric assay, the microculture tetrazolium assay (Carmichael J., DeGraff W. G., Gazdar A. F., Minna J. D. and Mitchell J. R., Evaluation of a tetrazolium-based semiautomated colorimetric assay: assessment of chemosensitivity testing, Cancer Res., 47, 936-942, (1987)).
# [3] = Cytotoxicity, L1210 (microculture tetrazolium assay); assay type: cell-based, murine; details: mouse, l1210 cells; L1210, 2 days; read-out: Cytotoxicity L 1210 IC50
# Experimental: as §1
# (§5) 1 murine leukemia, L1210,
# as §3, §4
# [4] = tested on: L1210, A431 and PAEC cells; assay: Cytotoxicity (microculture tetrazolium assay), three cell lines; assay type: cell-based, murine (L1210), human (A431), pig (PAEC); details: in words
# Experimental: as §1, §5
# 1 human epidermoid carcinoma, A431,
# as §2, §3, §4
# M 5076 sarcoma = assay: Inhibition of tumor growth in vivo in M 5076 sarcoma in mice; details: for M 5076 sarcoma % ITG (inhibition of tumor growth): 13th day; for correlation between antitumor activity and inhibition of angiogenesis: M 5076 antitumor activity versus CAM test, in words
# Experimental: The malignant cells (10^6 /mouse) are inoculated subcutaneously on day 0 to form a tumor nodule. The mice are then distributed at random in treated/control groups (12 mice/group). […] The inhibition of tumor growth (ITG) is evaluated on the 13th day according to the following calculation: [formula]
# murine leukemia, L1210 = assay: Cytotoxicity, L1210 (microculture tetrazolium assay); assay type: cell-based
# Experimental: as §1, §5, §3, §4
smiles,measurement,setting,value
"O=C(C=Cc1ccc2cc(C=CC(=O)Nc3ccc(P(=O)(O)O)cc3)ccc2c1)Nc1ccc(P(=O)(O)O)cc1 [Example 40, 4,4'-[2,6-Divinylenenaphthalenediylbis(carbonylamino)]bis(phenylphosphonic acid)]",inhibition at 125 µM,[1],68%
"O=C(Nc1ccc(P(=O)(O)O)cc1)c1ccc(Cc2ccc(C(=O)Nc3ccc(P(=O)(O)O)cc3)cc2)cc1 [Example 11, 4,4'-[4,4'-Diphenylmethanediylbis(carbonylamino)]bis(phenylphosphonic acid)tetra-sodium salt]",CC50 at 72 h,[2],429 µM
same,CC50 at 48 h,[3],> 500 µM
same,cytotoxic effect,[4],without a cytotoxic effect
same,M 5076 sarcoma % ITG (inhibition of tumor growth),"M 5076 sarcoma; 30 mg/kg, intraperitoneal day 1 to day 12",60%
same,correlation between antitumor activity and inhibition of angiogenesis,M 5076 sarcoma,very good correlation
same,inhibition at 125 µM,[1],65%
same,CAM test,[1],65 ± 8%
"O=C(CCCCCCCCC(=O)Nc1ccc(P(=O)(O)O)cc1)Nc1ccc(P(=O)(O)O)cc1 [Example 1, 4,4'-[1,8-Octanediylbis(carbonylamino)]bis(phenylphosphonic acid)tetrasodium salt]",CC50 at 72 h,[2],> 500 µM
same,CC50 at 48 h,[3],> 500 µM
same,cytotoxic effect,[4],without a cytotoxic effect
same,M 5076 sarcoma % ITG (inhibition of tumor growth),"M 5076 sarcoma; 60 mg/kg, intraperitoneal day 1 to day 12",61%
same,correlation between antitumor activity and inhibition of angiogenesis,M 5076 sarcoma,very good correlation
same,inhibition at 125 µM,[1],64%
same,CAM test,[1],64 ± 6%
"O=C(C=C[C@H]1CC[C@H](C=CC(=O)Nc2ccc(P(=O)(O)O)cc2)CC1)Nc1ccc(P(=O)(O)O)cc1 [Example 45, 4,4'-[1,4-trans-Divinylenecyclohexanediylbis(carbonylamino)]bis(phenylphosphonic acid)]",inhibition at 125 µM,[1],89%
"O=C(C=Cc1ccc(C=CC(=O)Nc2ccc(P(=O)(O)O)cc2)c2ccccc12)Nc1ccc(P(=O)(O)O)cc1 [Example 44, 4,4'-[1,4-Divinylenenaphthalenediylbis(carbonylamino)]bis(phenylphosphonic acid)]",inhibition at 125 µM,[1],80%
"O=C(/C=C/C=C/c1ccc(/C=C/C=C/C(=O)Nc2ccc(P(=O)(O)O)cc2)cc1)Nc1ccc(P(=O)(O)O)cc1 [Example 47, 4,4'-[1,4-Di(1,3-trans-trans-butadienylene)benzenediylbis(carbonylamino)]bis(phenylphosphonic acid)]",inhibition at 125 µM,[1],93%
"O=C(C=Cc1ccc(C=CC(=O)Nc2ccc(P(=O)(O)O)cc2)s1)Nc1ccc(P(=O)(O)O)cc1 [Example 39, 4,4'-[2,5-Divinylenethiophenediylbis(carbonylamino)]bis(phenylphosphonic acid)]",inhibition at 125 µM,[1],75%
"O=C(CCCCCCCCCCC(=O)Nc1ccc(P(=O)(O)O)cc1)Nc1ccc(P(=O)(O)O)cc1 [Example 5, 4,4'-[1,10-Decanediylbis(carbonylamino)]bis(phenylphosphonic acid)tetrasodium salt]",inhibition at 125 µM,[1],68%
"O=C(C=Cc1ccc(C=CC(=O)Nc2ccc(P(=O)(O)O)cc2)cc1)Nc1ccc(P(=O)(O)O)cc1 [Example 24, 4,4'-[1,4-Divinylenebenzenediylbis(carbonylamino)]bis(phenylphosphonic acid)]",inhibition at 125 µM,[1],82%
"O=C(CC[C@H]1CC[C@H](CCC(=O)Nc2ccc(P(=O)(O)O)cc2)CC1)Nc1ccc(P(=O)(O)O)cc1 [Example 32, 4,4'-[trans-1,4-Diethylenecyclohexanediylbis(carbonylamino)]bis(phenylphosphonic acid)]",inhibition at 125 µM,[1],80%
"O=C(CCCCCCCCCCCCCC(=O)Nc1ccc(P(=O)(O)O)cc1)Nc1ccc(P(=O)(O)O)cc1 [Example 8, 4,4'-[1,13-Tridecanediylbis(carbonylamino)]bis(phenylphosphonic acid)]",inhibition at 125 µM,[1],90%
"Cc1ccc(C(=O)Nc2ccc(S(=O)(=O)O)c3cc(S(=O)(=O)O)cc(S(=O)(=O)O)c23)cc1NC(=O)c1cccc(NC(=O)Nc2cccc(C(=O)Nc3cc(C(=O)Nc4ccc(S(=O)(=O)O)c5cc(S(=O)(=O)O)cc(S(=O)(=O)O)c45)ccc3C)c2)c1 [Suramin, suramin, reference compound]",CC50 at 72 h,[2],202 ± 10 µM
same,CC50 at 48 h,[3],131 ± 21 µM
same,cytotoxicity on the L 1210 leukemic line,"murine leukemia, L1210",relative cytotoxicity
same,M 5076 sarcoma % ITG (inhibition of tumor growth),"M 5076 sarcoma; 100 mg/kg, d 1,4,7 i.v.",67%
same,inhibition at 125 µM,[1],20%
same,CAM test,[1],20 ± 3%
same,inhibition of neovascularization (CAM),[1]; in words,weak inhibition of neovascularization
"O=C(CCCCCCCCCCCCC(=O)Nc1ccc(P(=O)(O)O)cc1)Nc1ccc(P(=O)(O)O)cc1 [Example 7, 4,4'-[1,12-Dodecanediylbis(carbonylamino)]bis(phenylphosphonic acid)]",inhibition at 125 µM,[1],56%
